The record followed here is ChEMBL document CHEMBL1201861, “Genomics of Drug Sensitity in Cancer screening data, Wellcome Trust Sanger Institute”.

The structures appear in SMILES notation.

Experiment in all cases: cells
In test [1] the test system is DMS-273. The test is classed as functional, cell-based. Particulars: Homo sapiens.
Description: SANGER: Inhibition of human DMS-273 cell growth in a cell viability assay.
Test [2] deals with FTC-133. Format: functional, cell-based. Particulars: Homo sapiens.
For test [3], the system named is G-402. Format: functional, cell-based. Particulars: Homo sapiens.
Description: SANGER: Inhibition of human G-402 cell growth in a cell viability assay.
In test [4] the test system is GCT. Format: functional, cell-based. Particulars: Homo sapiens.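 Also: GCT cell line proliferation inhibition, read out with a cell viability assay.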
Description: SANGER: Inhibition of human GCT cell growth in a cell viability assay.
Test [5] concerns HCC1937. The test is classed as functional, cell-based. Particulars: Homo sapiens.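 Also: growth inhibition measured with a cell viability read-out.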
Description: SANGER: Inhibition of human HCC1937 cell growth in a cell viability assay.
In test [6] the test system is HCC 2998. The test is classed as functional, cell-based. The conditions noted are these: Homo sapiens.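 Also: growth inhibition of human HCC2998 cells, measured with a cell viability read-out.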
Description: SANGER: Inhibition of human HCC2998 cell growth in a cell viability assay.
Test [7] concerns HCT-116. The test is classed as functional, cell-based. The conditions noted are these: Homo sapiens.
Description: SANGER: Inhibition of human HCT-116 cell growth in a cell viability assay.
The test system of test [8] is HSC-2. Format: functional, cell-based. The conditions noted are these: Homo sapiens.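 Also: growth inhibition of human HSC-2 cells, read out by a cell viability assay.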
Description: SANGER: Inhibition of human HSC-2 cell growth in a cell viability assay.
The subject of test [9] is HT-29. The test is classed as functional, cell-based. Particulars: Homo sapiens.
Description: SANGER: Inhibition of human HT-29 cell growth in a cell viability assay.
The subject of test [10] is JEG-3. Format: functional, cell-based. The conditions noted are these: Homo sapiens.
Description: SANGER: Inhibition of human JEG-3 cell growth in a cell viability assay.
The subject of test [11] is KYSE-140. The test is classed as functional, cell-based. The conditions noted are these: Homo sapiens.
Description: SANGER: Inhibition of human KYSE-140 cell growth in a cell viability assay.
The test system of test [12] is KYSE-150 cell line. Format: functional, cell-based. The conditions noted are these: Homo sapiens.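 Also: growth inhibition of human KYSE-150 cells, read out with a cell viability assay.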
Description: SANGER: Inhibition of human KYSE-150 cell growth in a cell viability assay.
Test [13] concerns KYSE-510. Format: functional, cell-based. Particulars: Homo sapiens.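 Also: cell viability readout used to measure how strongly growth of the cell line is suppressed.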
Description: SANGER: Inhibition of human KYSE-510 cell growth in a cell viability assay.
The subject of test [14] is LN-405. Format: functional, cell-based. The conditions noted are these: Homo sapiens.
Description: SANGER: Inhibition of human LN-405 cell growth in a cell viability assay.
The test system of test [15] is ME-180. Format: functional, cell-based. Particulars: Homo sapiens.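 Also: cell viability assay measuring growth inhibition of ME-180 cells.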
Description: SANGER: Inhibition of human ME-180 cell growth in a cell viability assay.
Test [16] concerns MKN-7. The test is classed as functional, cell-based. Particulars: Homo sapiens.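 Also: growth inhibition of MKN-7 cells, read out with a cell viability assay.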
Description: SANGER: Inhibition of human MKN7 cell growth in a cell viability assay.
Test [17] has as its system NCI-H1651. Format: functional, cell-based. Particulars: Homo sapiens.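 Also: Read-out is a cell viability assay, with IC50 expressing inhibition of NCI-H1651 cell growth.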
Description: SANGER: Inhibition of human NCI-H1651 cell growth in a cell viability assay.
The subject of test [18] is NCI-H1793. The test is classed as functional, cell-based. Particulars: Homo sapiens.
Description: SANGER: Inhibition of human NCI-H1793 cell growth in a cell viability assay.
For test [19], the system named is NCI-H2122. The test is classed as functional, cell-based. The conditions noted are these: Homo sapiens.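 Also: growth inhibition of the cells, read out with a cell viability assay.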
Description: SANGER: Inhibition of human NCI-H2122 cell growth in a cell viability assay.
The subject of test [20] is NCI-H2452. The test is classed as functional, cell-based. The conditions noted are these: Homo sapiens.
Description: SANGER: Inhibition of human NCI-H2452 cell growth in a cell viability assay.
For test [21], the system named is NCI-H596. Format: functional, cell-based. Particulars: Homo sapiens.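 Also: growth inhibition of NCI-H596 cells, read out with a cell viability assay.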
Description: SANGER: Inhibition of human NCI-H596 cell growth in a cell viability assay.
Test [22] has as its system NCI-H661. Format: functional, cell-based. The conditions noted are these: Homo sapiens.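 Also: cell viability assay read-out, IC50 being the concentration that inhibits growth of the cells by half.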
Description: SANGER: Inhibition of human NCI-H661 cell growth in a cell viability assay.
Test [23] has as its system PA-1. Format: functional, cell-based. The conditions noted are these: Homo sapiens.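 Also: IC50 for suppression of PA-1 cell proliferation, determined with a cell viability read-out.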
Description: SANGER: Inhibition of human PA-1 cell growth in a cell viability assay.
The subject of test [24] is SK-HEP1. Format: functional, cell-based, SK-HEP-1. Particulars: Homo sapiens.
Description: SANGER: Inhibition of human SK-HEP-1 cell growth in a cell viability assay.
The subject of test [25] is SW1573. Format: functional, cell-based. Particulars: Homo sapiens.
Description: SANGER: Inhibition of human SW1573 cell growth in a cell viability assay.
Test [26] concerns SW1783. Format: functional, cell-based. Particulars: Homo sapiens.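 Also: cell growth inhibition measured with a viability assay.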
Description: SANGER: Inhibition of human SW1783 cell growth in a cell viability assay.
In test [27] the test system is 786-0. The test is classed as functional, cell-based. The conditions noted are these: Homo sapiens.
Description: SANGER: Inhibition of human 786-0 cell growth in a cell viability assay.
For test [28], the system named is A2780. Format: functional, cell-based. The conditions noted are these: Homo sapiens.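 Also: growth inhibition of A2780 cells, read out with a cell viability assay.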
Description: SANGER: Inhibition of human A2780 cell growth in a cell viability assay.
Test [29] has as its system A673. The test is classed as functional, cell-based. The conditions noted are these: Homo sapiens.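 Also: growth inhibition of human A673 cells, read out through a cell viability assay.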
Description: SANGER: Inhibition of human A673 cell growth in a cell viability assay.
Test [30] deals with ABC-1. Format: functional, cell-based. The conditions noted are these: Homo sapiens.
Description: SANGER: Inhibition of human ABC-1 cell growth in a cell viability assay.
The test system of test [31] is BPH-1. Format: functional, cell-based. Particulars: Homo sapiens.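 Also: cell viability assay measuring growth inhibition of human BPH-1 cells.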
Description: SANGER: Inhibition of human BPH-1 cell growth in a cell viability assay.
For test [32], the system named is BXPC-3. Format: functional, cell-based. Particulars: Homo sapiens.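 Also: growth inhibition of human BxPC-3 cells, read out by a cell viability assay.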
Description: SANGER: Inhibition of human BxPC-3 cell growth in a cell viability assay.
In test [33] the test system is C-33-A. Format: functional, cell-based. The conditions noted are these: Homo sapiens.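 Also: cell viability assay measuring growth inhibition of C-33-A cells.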
Description: SANGER: Inhibition of human C-33-A cell growth in a cell viability assay.
In test [34] the test system is CAL-33. The test is classed as functional, cell-based. Particulars: Homo sapiens.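 Also: growth inhibition of CAL-33 cells, read out with a cell viability assay.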
Description: SANGER: Inhibition of human CAL-33 cell growth in a cell viability assay.
Test [35] deals with CAL-51. The test is classed as functional, cell-based. The conditions noted are these: Homo sapiens.
Description: SANGER: Inhibition of human CAL-51 cell growth in a cell viability assay.
In test [36] the test system is CAL-54. The test is classed as functional, cell-based. The conditions noted are these: Homo sapiens.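 Also: growth inhibition of CAL-54 cells, read out by a viability measurement.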
Description: SANGER: Inhibition of human CAL-54 cell growth in a cell viability assay.
Test [37] relates to CAL-85-1. The test is classed as functional, cell-based. Particulars: Homo sapiens.
Description: SANGER: Inhibition of human CAL-85-1 cell growth in a cell viability assay.
Test [38] concerns VM-CUB-1. Format: functional, cell-based. Particulars: Homo sapiens.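 Also: cell viability assay measuring growth inhibition of the human VM-CUB-1 cell line.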
Description: SANGER: Inhibition of human VM-CUB-1 cell growth in a cell viability assay.
Test [39] concerns YKG-1. Format: functional, cell-based. Particulars: Homo sapiens.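 Also: cell growth inhibition, read out with a viability assay.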
Description: SANGER: Inhibition of human YKG-1 cell growth in a cell viability assay.
Test [40] concerns DG-75. Format: functional, cell-based, Homo sapiens. The conditions noted are these: Homo sapiens, DG-75.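 Also: growth inhibition of DG-75 cells, read out with a cell viability assay.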
Description: SANGER: Inhibition of human DG-75 cell growth in a cell viability assay.
Test [41] deals with DMS-153. Format: functional, cell-based, Homo sapiens. The conditions noted are these: Homo sapiens, DMS-153.
Description: SANGER: Inhibition of human DMS-153 cell growth in a cell viability assay.
In test [42] the test system is EB2. Format: functional, cell-based, Homo sapiens. The conditions noted are these: Homo sapiens, EB2.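 Also: growth inhibition of EB2 cells, read out with a cell viability assay.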
Description: SANGER: Inhibition of human EB2 cell growth in a cell viability assay.
Test [43] deals with HuTu80. The test is classed as functional, cell-based, Homo sapiens, HUTU-80. Particulars: Homo sapiens, HuTu80.
Description: SANGER: Inhibition of human HUTU-80 cell growth in a cell viability assay.
The subject of test [44] is KMOE-2. Format: functional, cell-based, Homo sapiens. Particulars: Homo sapiens, KMOE-2.
Description: SANGER: Inhibition of human KMOE-2 cell growth in a cell viability assay.
Test [45] relates to L-540. The test is classed as functional, cell-based, Homo sapiens. The conditions noted are these: Homo sapiens, L-540.
Description: SANGER: Inhibition of human L-540 cell growth in a cell viability assay.
The subject of test [46] is LB373-MEL-D. Format: functional, cell-based, Homo sapiens. The conditions noted are these: Homo sapiens, LB373-MEL-D.
Description: SANGER: Inhibition of human LB373-MEL-D cell growth in a cell viability assay.
For test [47], the system named is LP-1. Format: functional, cell-based, Homo sapiens. The conditions noted are these: Homo sapiens, LP-1.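 Also: growth inhibition of human LP-1 cells, with the read-out taken from a cell viability assay.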
Description: SANGER: Inhibition of human LP-1 cell growth in a cell viability assay.
In test [48] the test system is LU-165. The test is classed as functional, cell-based, Homo sapiens. Particulars: Homo sapiens, LU-165.
Description: SANGER: Inhibition of human LU-165 cell growth in a cell viability assay.
The subject of test [49] is MHH-CALL-2. Format: functional, cell-based, Homo sapiens. The conditions noted are these: Homo sapiens, MHH-CALL-2.
Description: SANGER: Inhibition of human MHH-CALL-2 cell growth in a cell viability assay.
The subject of test [50] is SIG-M5. The test is classed as functional, cell-based, Homo sapiens. The conditions noted are these: Homo sapiens, SIG-M5.
Description: SANGER: Inhibition of human SIG-M5 cell growth in a cell viability assay.
In test [51] the test system is SNU-C1. The test is classed as functional, cell-based, Homo sapiens. The conditions noted are these: Homo sapiens, SNU-C1.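 Also: growth inhibition of SNU-C1 human cells, read out by a cell viability assay.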
Description: SANGER: Inhibition of human SNU-C1 cell growth in a cell viability assay.
The test system of test [52] is SR. Format: functional, cell-based, Homo sapiens. The conditions noted are these: Homo sapiens, SR.
Description: SANGER: Inhibition of human SR cell growth in a cell viability assay.
Test [53] has as its system CA46. Format: functional, cell-based, Homo sapiens. Particulars: Homo sapiens, CA46.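 Also: growth inhibition of human CA46 cells, read out by a cell viability assay.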
Description: SANGER: Inhibition of human CA46 cell growth in a cell viability assay.
The subject of test [54] is THP-1. The test is classed as functional, cell-based, Homo sapiens. The conditions noted are these: Homo sapiens, THP-1.
Description: SANGER: Inhibition of human THP-1 cell growth in a cell viability assay.
Test [55] concerns YT. The test is classed as functional, cell-based, Homo sapiens. Particulars: Homo sapiens, YT.
Description: SANGER: Inhibition of human YT cell growth in a cell viability assay.
Test [56] relates to NCI-H2030. Format: functional, cell-based. The conditions noted are these: Homo sapiens.
Description: SANGER: Inhibition of human NCI-H2030 cell growth in a cell viability assay.
In test [57] the test system is A-375. The test is classed as functional, cell-based. The conditions noted are these: Homo sapiens.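 Also: growth inhibition of A375 cells, read out with a cell viability assay.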
Description: SANGER: Inhibition of human A375 cell growth in a cell viability assay.

As to `NC1(c2ccc(-c3nc4ccn5c(=O)[nH]nc5c4cc3-c3ccccc3)cc2)CCC1` [MK-2206], the IC50 in [1] was 1.52 µM; in [2], more than 4 µM; in test [3], 3.71 µM; in [4], more than 4 µM; in [5], more than 4 µM; in test [6], more than 4 µM. Further, the IC50 in [7], in [8], in test [9], in test [10], in [11] and in [12] was more than 4 µM each time. Also, the IC50 was more than 4 µM in [13]; more than 4 µM in test [14]; 1.57 µM in test [15]; more than 4 µM in [16]; more than 4 µM in test [17]; more than 4 µM in [18]. In addition, the IC50 in test [19] was more than 4 µM; in test [20], more than 4 µM; in [21] it was more than 4 µM; in test [22], more than 4 µM; in [23], 1.35 µM; in [24], more than 4 µM. Also, the IC50 in [25] was more than 4 µM; in test [26], more than 4 µM; in test [27], more than 4 µM; in [28], more than 4 µM; in test [29] it was more than 4 µM; in test [30], 2.33 µM. Further, the IC50 in test [31] is more than 4 µM; in test [32], more than 4 µM; in test [33] it was more than 4 µM; in test [34], more than 4 µM; in test [35], more than 4 µM; in test [36] it was 1.71 µM. Further, the IC50 is more than 4 µM in test [37], 2.39 µM in test [38] and more than 4 µM in test [39].
Turning to `COc1ccc(N(C(=O)Oc2c(C)cccc2C)c2ccnc(Nc3ccc(N4CCN(C)CC4)cc3)n2)c(OC)c1`, the IC50 in test [40] is more than 5.12 µM; in [41], more than 5.12 µM; in test [42], more than 5.12 µM; in test [43], 0.175 µM; in [44], more than 5.12 µM; in test [45], more than 5.12 µM. Besides, the IC50 in test [46], in [47], in [48], in test [49], in test [50] and in [51] was more than 5.12 µM each time. The IC50 in test [52], in test [53], in test [54] and in test [55] was more than 5.12 µM in each case.
For the compound `CN(C)CCOc1ccc(-c2nc(-c3ccncc3)c(-c3ccc4c(c3)CC/C4=N\O)[nH]2)cc1` [SB590885], the IC50 in test [1], in test [2], in test [3], in [4], in test [5] and in test [6] was more than 5 µM each time. Further, the IC50 in test [7], in test [8], in test [9], in test [10], in test [11] and in test [12] was more than 5 µM in each case. The IC50 in test [13], in test [14], in test [15], in [16], in test [17] and in test [18] was more than 5 µM throughout. Moreover, the IC50 in test [56], in [19], in test [20], in [21], in test [22] and in test [23] was more than 5 µM each time. Moreover, the IC50 in test [24] was more than 5 µM; in [25] it was more than 5 µM; in test [26] it was more than 5 µM; in test [27], more than 5 µM; in test [28], more than 5 µM; in test [57], 0.282 µM. The IC50 in test [29], in [30], in test [31], in [32], in test [33] and in [34] was more than 5 µM each time. The IC50 in test [35], in [36], in [37], in test [38] and in test [39] was more than 5 µM in each case.
As to `C[C@@H](Oc1cc(-c2cnn(C3CCNCC3)c2)cnc1N)c1c(Cl)ccc(F)c1Cl` [CRIZOTINIB], the IC50 in test [40], in test [41], in [42], in test [43], in test [44] and in test [45] was more than 2 µM each time. Besides, the IC50 in [46] is more than 2 µM; in test [47], more than 2 µM; in [48], more than 2 µM; in test [49] it was 0.683 µM; in test [50], more than 2 µM; in test [51], more than 2 µM. The IC50 was 0.126 µM in test [52], more than 2 µM in test [53], more than 2 µM in test [54] and more than 2 µM in [55].
Take `CO[C@@H]1[C@H](N(C)C(=O)c2ccccc2)C[C@H]2O[C@]1(C)n1c3ccccc3c3c4c(c5c6ccccc6n2c5c31)C(=O)NC4` [MIDOSTAURIN]: the IC50 was 0.324 µM in test [1]; 0.323 µM in test [19]; more than 0.512 µM in test [21]; more than 0.512 µM in test [26]; 0.209 µM in test [36]; more than 0.512 µM in test [37]. The IC50 in [38] is more than 0.512 µM.
In the case of `NC(=O)c1cccc(-c2cc(Nc3ccc(OC(F)(F)F)cc3)ncn2)c1`, the IC50 in test [40], in test [41], in [42], in [43], in test [44] and in test [45] was more than 1.28 µM in each case. The IC50 in [46], in test [47], in test [48], in test [49], in test [50] and in test [51] was more than 1.28 µM in each case. Further, the IC50 in test [52], in test [53], in test [54] and in test [55] was more than 1.28 µM in each case.
For `Cc1ccc(NC(=O)c2ccc(CN3CCN(C)CC3)cc2)cc1Nc1nccc(-c2cccnc2)n1` [IMATINIB], the concentration for half-maximal inhibition (IC50) in test [40], in test [41], in [42], in [43], in [44] and in test [45] was more than 2 µM in each case. Also, the IC50 in test [46], in test [47], in [48], in [49], in [51] and in test [52] was more than 2 µM each time. Besides, the IC50 in test [53], in [54] and in [55] was more than 2 µM each time.
